The text below walks through data of PMC7004148, “Flexible Fragment Growing Boosts Potency of Quorum‐Sensing Inhibitors against Pseudomonas aeruginosa Virulence” (Chemmedchem, 2019).

Data set [1] deals with pyocyanin in P. aeruginosa PA14. Kind of data set: Pyocyanin assay in P. aeruginosa PA14 cultures. The class given is cell-based, Pseudomonas aeruginosa PA14. To be noted: mean of at least two independent experiments, SD<25 %. On the procedure: (§1) 6. Effects in P. aeruginosa
(§2) Pyocyanin Assay. The inhibition of virulence factor pyocyanin was measured as described previously[26] following a procedure established by Essar et al.[28] Briefly, Pseudomonas aeruginosa PA14 cultures were grown in the presence of inhibitors or DMSO as control for 16 h. Pyocyanin was determined photometrically after extraction of the cultures with chloroform and re-extraction with 0.2 M HCl. Protonated red colored pyocyanin was determined by measuring OD520 and normalizing to OD600. None of the compound impaired bacterial viability as observed by the OD600 parameter. Inhibition values were expressed in relation to the DMSO control. Each value is the mean of at least two independent experiments with n=3.
(§3) The given IC50 values represent the mean of at least two experiments using at least five different concentrations. Curve fitting was performed using the log (inhibitor) vs response model with constrained bottom = 0 and top =100 (GraphPad Prism 5.0).
(§4) Figure S4: Inhibition of virulence factor pyocyanin was evaluated in the clinical isolate PA14.
(§5) Representative dose-response curves a) compound 11 b) compound 20. Black dotes (•) represent the reduction of pyocyanin in presents of a given compound concentration relative to DMSO control (= 0 %). The continuous black line is the none -linear regression analysis to […]
(1 picture or pasted object on this page, not shown here)

For data set [2], the system named is HHQ levels in PA14pqsH strain. Briefly: HHQ quantification in PA14pqsH cultures (UHPLC-MS/MS). The class given is cell-based. To be noted: Pseudomonas aeruginosa, read-out: HHQ inhibition. On the procedure: (§6) determine IC50 values using a log (inhibitor) vs. response model with constrains (bottom = 0; top =100) (Graph Pad Prism 5.04).
(§7) HHQ and HQNO Quantification. Extracellular HHQ and HQNO were measured as previously reported[29] following a modified procedure of Lépine et al.:[30] Briefly, P. aeruginosa PA14pqsH cultures were grown in the presence of DMSO as a control or DMSO solutions of inhibitors for 17 h. HHQ and HQNO were quantified from ethyl acetate extracts using 5,6,7,8-tetradeutero-2-heptyl-4(1H)-quinolone (HHQ-d4) as internal standard (IS).
(§8) UHPLC-MS/MS analysis was performed as described in detail by Storz et al.[31] The following ions were monitored (mother ion [m/z], product ion [m/z], scan time [s], scan width [m/z], […]
(§9) quantification was performed using Xcalibur software with the use of a calibration curve relative to the area of the IS. Given data represent the mean of at least two independent experiments with n=3 and were expressed as percentage inhibition relative to DMSO control.

Data set [3] relates to HQNO levels in PA14pqsH strain. Briefly: HQNO quantification in PA14pqsH cultures (UHPLC-MS/MS). The class given is cell-based. The following applies: Pseudomonas aeruginosa, read-out: HQNO inhibition. On the procedure: as §6, §7, §8, §9
The next data set has as its target T1, PqsRT265A (Pseudomonas aeruginosa, UniProt Q9I4X0, T265A).
T1 construct: H6SUMOPqsRc87 and T265A mutant H6SUMOPqsRc87 for ITC studies was expressed; made in house; host or cells: E. coli BL21 (λDE3)
Briefly: ITC thermodynamic signature, PqsRwt versus PqsRT265A mutant. The class given is binding. The following applies: comparison of thermodynamic signatures (SI, Figure S3). On the procedure: 3. Isothermal Titration Calorimetry
3.1 Site-directed Mutagenesis: PqsRT265A mutant
The plasmid pSUMO3_ck4_T265ApqsRC87 was generated as previously described[8] using QuikChange Site-Directed Mutagenesis Kit (Stratagene) following the manufacturer’s instructions. The following primer were used: forward 5'
3. PCR condition to amplify the T265A gene: 16 cycles with 35s denaturation at 95 °C, 60 s annealing at 55 ° C, and 13 min extension. The generated plasmid was transformed via electroporation into E. coli BL21 3.2 Expression and Purification of H6SUMOPqsRc87
(§10) H6SUMOPqsRc87 and T265A mutant H6SUMOPqsRc87 for ITC studies was expressed and purified as previously reported.[8,9] Briefly, E. coli BL21 (λDE3) transfected with the pSUMO3_ck4_pqsRC87 or pSUMO3_ck4_T265ApqsRC87 plasmid[8] were grown in LB medium containing 50 µg mL-1 kanamycin at 37 °C to an OD600 of approximately 0.8 and expression was induced with 0.2 mM IPTG for 16 h at 16 °C. The protein was purified using nickel affinity chromatography in a one step gradient.
ITC titrations were performed as described before.[8,9] Briefly, ITC experiments were carried out using an ITC200 instrument (Microcal Inc., GE Healthcare). The titrations were performed on 50-150 µM H6SUMO-PqsRC87 in the 200 µL sample cell using 19 injections of 2 µL ligand solution (0.5-1.5 mM) every 180 s. […]

The target in data set [4] is T2, PqsR (Pseudomonas aeruginosa, UniProt Q9I4X0). Kind of data set: biochemical. The class given is binding. More on the design: H6SUMOPqsRc87 and T265A mutant H6SUMOPqsRc87 for ITC studies was expressed; made in house; host or cells: E. coli BL21 (λDE3). The following applies: for EE: enthalpic efficiency. On the procedure: 3.2 Expression and Purification of H6SUMOPqsRc87
as §10
Target sequence in this assay (Q9I4X0 87-332): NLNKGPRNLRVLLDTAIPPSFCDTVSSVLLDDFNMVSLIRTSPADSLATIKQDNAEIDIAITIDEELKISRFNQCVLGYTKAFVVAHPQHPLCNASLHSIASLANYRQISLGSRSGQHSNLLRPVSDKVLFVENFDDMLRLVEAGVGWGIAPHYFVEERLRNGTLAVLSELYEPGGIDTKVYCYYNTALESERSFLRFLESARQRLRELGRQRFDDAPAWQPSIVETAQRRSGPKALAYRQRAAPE
ITC titrations were performed as described before.[8,9] Briefly, ITC experiments were carried out using an ITC200 instrument (Microcal Inc., GE Healthcare). The titrations were performed on 50-150 µM H6SUMO-PqsRC87 in the 200 µL sample cell using 19 injections of 2 µL ligand solution (0.5-1.5 mM) every 180 s. The data were collected and the area under each peak was integrated. To correct for heats of dilution and mixing the final base line consisting of small peaks of the same size at the end of the titration were substracted.

In data set [5] the test system is Pseudomonas aeruginosa PA14. The class given is cell-based. To be noted: PA14 cultures grown 16 h in the presence of inhibitors. On the procedure:
as §1, §2, §3, §4, §5

In data set [6] the target is T2, PqsR. Kind of data set: PqsR β-galactosidase reporter gene assay in E. coli. On the set-up: expressed in transfected cells; host or cells: E. coli DH5α carrying plasmid pEAL08-2. The class given is cell-based. To be noted: E. coli reporter gene assay; 20 compared with 11. On the procedure: 5. E. coli reporter-gene assay & dose-response curves
PqsR Reporter gene assay in E. coli. The inverse agonistic/antagonistic activity of potential PqsR ligands was evaluated in a β-galactosidase reporter gene assay in E. coli as previously described.[26] In short, test compounds were co-incubated with E. coli DH5α cells containing the plasmid pEAL08-2,[27] which expresses PqsR and the β-galactosidase LacZ under the control of the pqsA promoter. The inverse agonistic/antagonistic activity of compounds was measured in the presence of 50 nM PQS. After incubation, galactosidase activity was quantified photometrically and expressed as ratio of controls. The given IC50 values represent the mean of at least two independent experiments using at least eight different concentrations of test compound with n = 4. Non-linear regression analysis was done using the log (inhibitor) vs response model included in the GrapPad Prism 5.0 software package.
Target sequence in this assay (Q9I4X0 whole entry): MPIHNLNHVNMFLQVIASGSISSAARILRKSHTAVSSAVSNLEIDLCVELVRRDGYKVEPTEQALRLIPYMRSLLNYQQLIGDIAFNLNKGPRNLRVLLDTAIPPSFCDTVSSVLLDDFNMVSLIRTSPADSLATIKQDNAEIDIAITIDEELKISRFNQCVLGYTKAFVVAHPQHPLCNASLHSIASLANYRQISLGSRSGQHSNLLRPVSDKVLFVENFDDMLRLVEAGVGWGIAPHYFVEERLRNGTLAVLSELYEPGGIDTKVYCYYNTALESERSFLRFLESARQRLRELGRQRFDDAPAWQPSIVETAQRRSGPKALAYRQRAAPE
Background: A reporter such as luciferase makes a cellular process visible.

[7] abbreviates: Pseudomonas aeruginosa, PA14, read-out: Pyocyanin IC50, PA14 cultures, photometric quantification.

Read-outs that look alike come from different tables or passages of the source.

T1 sequence (Q9I4X0 87-332 T265A): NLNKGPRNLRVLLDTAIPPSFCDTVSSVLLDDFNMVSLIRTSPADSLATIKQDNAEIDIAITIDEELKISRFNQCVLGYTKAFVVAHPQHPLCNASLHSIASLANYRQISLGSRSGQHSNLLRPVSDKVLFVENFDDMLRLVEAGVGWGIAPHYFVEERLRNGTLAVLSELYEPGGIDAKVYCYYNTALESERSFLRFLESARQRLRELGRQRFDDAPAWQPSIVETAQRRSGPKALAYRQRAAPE

For the compound `Nc1cc(NCc2ccc(F)cc2)cc(C(F)(F)F)n1` [Compound 11], the IC50 (in general, the concentration at which inhibition is half-maximal) in data set [1] (setting [7]) amounted to 105 ± 13 µM. The IC50 in data set [1] (read-out: Pyocyanin IC50, PA14 cultures, photometric quantification) is 102 µM. In data set [2], the inhibition – broadly, the percentage by which the read-out fell short of the control – at 200 µM stood at 48 ± 4%. In addition, in data set [3], the inhibition at 200 µM came out at 36 ± 3%. Moreover, the “Enthalpic contribution, PqsRwt versus PqsRT265A” value at PqsRT265A was “no significant difference in the enthalpic contribution”. Also, binding at PqsR [4] was characterised by a dissociation constant (Kd) of 0.6 ± 0.2 µM. On PqsR [4] (Table S1), the “-TΔS” value turned out to be 1.0 ± 0.8 kcal/mol, the ΔG is -8.4 ± 0.2 kcal/mol, the ΔH was -9.8 ± 0.8 kcal/mol and the EE came to 0.49 kcal/mol. At PqsR [4] (Table S1, ligand efficiency), this compound gave an LE of 0.42 kcal/mol.
Turning to `Nc1cc(NCCCc2ccc(F)cc2)cc(C(F)(F)F)n1` [Compound 20], the IC50 in data set [1] (setting [7]) stood at 5.9 µM. For the same compound, the inhibition at 100 µM worked out at 56 ± 4% in data set [2] and 48 ± 1% in data set [3]. Moreover, the “Bacterial viability (OD600)” value in data set [5] was “without affecting bacterial viability”. Further, the “boost in potency (IC50) versus 11” value at PqsR [6] was 20 fold. For the same compound, the EE on PqsR [4] (Table S1) was 0.50 kcal/mol.
